The subject of one data set is pregnant C57Bl/6J mice. The settings on record: experiment 1; for overall neonatal mortality: control 4.1%. The procedure: (§1) To investigate the role of ketanserin, an exemplary serotonin receptors 2A and 2C antagonist, on preventing SSRI-induced adverse pregnancy and neonatal outcomes, pregnant mice were treated with SSRI, serotonin, and SSRI/serotonin+ketanserin.
Data set [1] has as its system pregnant mice. Briefly: Experiment 2: as experiment 1, all mice received ketanserin one hour before treatment. Type of data set: in vivo. The conditions noted are these: for litter size / overall neonatal mortality / maternal weight gain / neonatal weight on postnatal day 0: experiment 2; for litter size / overall neonatal mortality: ketanserin 1 mg/kg daily one hour before saline, fluoxetine or serotonin; for maternal weight gain / neonatal weight on postnatal day 0: ketanserin 1 mg/kg daily one hour before saline or serotonin. The procedure:
as §1

In data set [2] the test system is pregnant mice. Kind of data set: Number of mouse pups born in control and treatment groups (FIG. 2A). Type of data set: in vivo. The conditions noted are these: serotonin 4 mg/kg, fluoxetine 2 mg/kg, ketanserin 1 mg/kg, vs saline control.
The subject of data set [3] is pregnant mice. The conditions noted are these: fluoxetine 2 mg/kg and 20 mg/kg vs control; dose-dependent; FIG. 1C.
The subject of data set [4] is pregnant sheep. The conditions noted are these: in vivo.
Excerpt: FIG. 1G compares lamb birthweights between a treatment group and control group.
FIG. 1G compares the lamb birthweights between the treatment group and control group.
For data set [5] the following is noted: cited from earlier work.
The test system of data set [6] is pregnant sheep. The conditions noted are these: cited from earlier work.
For data set [7] the following is noted: in vivo; cited from earlier work.
Another data set concerns placenta of mice. Kind of data set: Placenta immunostaining (Tunel, caspase 3, Ki67) and placental size, embryonic day 18.5 (FIG. 2B). The conditions noted are these: fluoxetine 20 mg/kg.
A further data set has as its system SERT null mice. Kind of data set: Ketanserin rescue of neonatal mortality in SERT null mice. The data set is classed as in vivo. The conditions noted are these: 49.0% without ketanserin. How it is done: By performing RNA sequencing of placenta from heterozygous Sert+/− mice vs homozygous Sert−/− knockout mice and their respective offspring, it was confirmed that lack of maternal, but not placental or fetal SERT, is associated with placental changes: more than 2,100 genes were differentially expressed in the placenta when the dam was SERT−/−. Importantly, ketanserin also rescued the neonatal mortality in SERT null mice (49.0 vs 23.8% within 24 hours of birth).

Where [8] appears, read: fluoxetine 2 mg/kg or serotonin 5 mg/kg daily.

Like-named read-outs stand apart in the source and are kept apart here.

Consider four molecules from patent publication US20240390376A1, “METHOD FOR PREVENTING ADVERSE PREGNANCY OUTCOMES DUE TO USE OF SELECTIVE SEROTONIN REUPTAKE INHIBITORS (SSRI) DURING GESTATION” (Wisconsin Alumni Research Foundation, priority 2023, published 2024).

In the data set with pregnant C57Bl/6J mice (setting [8]), `CNCCC(Oc1ccc(C(F)(F)F)cc1)c1ccccc1` (centres unmarked) [fluoxetine] registered an overall neonatal mortality of 11.6%. In the data set with pregnant mice [1], the litter size came to 7.4±0.6 and the overall neonatal mortality turned out to be 24.3%. Moreover, in the data set with pregnant mice [2], the “number of pups born” value is “significantly reduced”. In the data set with pregnant mice [3], the mouse pup mortality result was “decidedly negative effect”. In the data set on pregnant sheep [4] (female, sheep), this molecule showed an average gestational length of 147.7 days. In addition, in the data set on pregnant sheep [4], the lamb birthweights result is “weighed significantly less” and the placentome diameter entry was “significantly smaller”. The placental transfer entry in [5] (in vivo) was “about 70%”. Besides, the “blood perfusion to the uterus” value in the data set on pregnant sheep [6] (third trimester pregnant sheep) is reported as “rapidly decreased”. In the data set on pregnant sheep [6] (treated during the last month of gestation), the placentome growth entry is “decreased placentome growth”. In addition, in data set [7], the “number of pups born” value was “decrease”, the pregnancy rates entry is “decreases” and the pup mortality result is recorded as “increase”. Moreover, in the data set with placenta of mice, the “Tunel-positive apoptotic cells in the placenta” value was “visualized”. The placental size result in the data set on placenta of mice (ketanserin 1 mg/kg) was “much reduced”.
For the molecule `O=C(c1ccc(F)cc1)C1CCN(CCn2c(=O)[nH]c3ccccc3c2=O)CC1` [ketanserin, 3-[2-[4-(4-fluorobenzoyl)piperidin-1-yl]ethyl]-1H-quinazoline-2,4-dione], in the data set on pregnant mice [1], the maternal weight gain is 11.4 ± 0.5 g, the “neonatal weight on postnatal day 0” value worked out at 1.264 ± 0.01 g, the litter size was determined as 7.0±0.3 and the overall neonatal mortality amounted to 8.5%. Also, in the data set on pregnant mice [1] (summary of the ketanserin studies), the “placental changes and adverse pregnancy and neonatal outcomes caused by SSRI use” value was “prevented most placental changes and adverse pregnancy and neonatal outcomes”. Moreover, the “neonatal mortality within 24 hours of birth” value in the data set on SERT null mice is 23.8%.
As to `NCCc1c[nH]c2ccc(O)cc12` [serotonin, 5-hydroxytryptamine], the “maternal weight gain between DPC10.5 and the day before parturition” value in the data set on pregnant C57Bl/6J mice (fluoxetine 2 mg/kg or serotonin 5 mg/kg daily, DPC 10.5 until parturition) amounted to 8.0 ± 0.8 g. This molecule also showed an overall neonatal mortality with pregnant C57Bl/6J mice (setting [8]) of 32.3%. Further, the litter size in the data set on pregnant C57Bl/6J mice (fluoxetine 2 mg/kg or serotonin 5 mg/kg daily, control 8.3) worked out at 5.2±0.5. Further, in the data set on pregnant C57Bl/6J mice (serotonin 5 mg/kg daily), the “neonatal weight on postnatal day 0” value is 1.138 ± 0.028 g and the “neonatal weight on postnatal day 1” value was 1.223 ± 0.028 g. In the data set on pregnant mice [1], the maternal weight gain turned out to be 10.2 ± 0.6 g, the “neonatal weight on postnatal day 0” value stood at 1.197 ± 0.01 g, the litter size worked out at 7.0±0.5 and the overall neonatal mortality came out at 22.8%. For the same molecule, the “number of pups born” value in the data set with pregnant mice [2] is “significantly reduced”.
`CN[C@H]1CC[C@@H](c2ccc(Cl)c(Cl)c2)c2ccccc21` [sertraline]: the placental transfer entry in [5] (low concentrations in the fetal circulation) was “limited placental transfer”. Besides, in data set [7], the “number of pups born” value is listed as “decrease” and the pup mortality result is recorded as “increase”.
